The source made the active and inactive calls. Cut-off read from the data, not from the text of the source, for most assays here: actives have a measured EC50 and inactives only a lower limit.
What was measured:
[1] = target: T1, Replicative DNA helicase DnaB (Mycobacterium tuberculosis, UniProt P9WMR3); test: DnaB intein splicing inhibitors, dose response, biochemical, cell-free fluorescence (AID 449749); type: functional
T1 sequence (P9WMR3 whole entry): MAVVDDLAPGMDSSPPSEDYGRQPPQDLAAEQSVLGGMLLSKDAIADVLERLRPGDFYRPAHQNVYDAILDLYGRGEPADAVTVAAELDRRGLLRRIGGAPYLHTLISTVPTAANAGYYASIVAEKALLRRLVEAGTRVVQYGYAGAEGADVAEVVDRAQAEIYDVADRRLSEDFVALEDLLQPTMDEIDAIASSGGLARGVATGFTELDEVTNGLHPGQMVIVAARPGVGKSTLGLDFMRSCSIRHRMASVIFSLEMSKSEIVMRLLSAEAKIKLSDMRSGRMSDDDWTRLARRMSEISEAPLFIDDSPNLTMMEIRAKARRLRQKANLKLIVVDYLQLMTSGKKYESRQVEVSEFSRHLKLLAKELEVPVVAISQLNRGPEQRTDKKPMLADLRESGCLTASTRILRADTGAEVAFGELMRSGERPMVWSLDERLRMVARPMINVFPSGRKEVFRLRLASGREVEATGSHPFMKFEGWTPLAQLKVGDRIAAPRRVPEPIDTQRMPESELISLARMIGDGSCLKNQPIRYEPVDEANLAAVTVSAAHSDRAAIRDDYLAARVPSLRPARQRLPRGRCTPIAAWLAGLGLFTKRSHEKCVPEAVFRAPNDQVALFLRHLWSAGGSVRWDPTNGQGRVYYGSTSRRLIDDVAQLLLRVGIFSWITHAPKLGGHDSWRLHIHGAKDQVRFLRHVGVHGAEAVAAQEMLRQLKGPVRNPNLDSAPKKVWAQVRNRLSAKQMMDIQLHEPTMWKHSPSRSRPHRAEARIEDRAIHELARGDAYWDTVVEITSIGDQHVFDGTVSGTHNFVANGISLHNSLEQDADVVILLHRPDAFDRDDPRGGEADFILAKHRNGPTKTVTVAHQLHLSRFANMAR

[2] = target: T2, Protein RecA (Mycobacterium tuberculosis, UniProt P9WHJ3); test: Fluorescence Cell-Free Homogeneous Dose Retest to Identify Inhibitors of RecA-Intein Splicing Activity. [Related pubchem assays (depositor defined):AID2097, AID2223, AID489010, AID492950]; type: functional
T2 sequence (P9WHJ3 whole entry): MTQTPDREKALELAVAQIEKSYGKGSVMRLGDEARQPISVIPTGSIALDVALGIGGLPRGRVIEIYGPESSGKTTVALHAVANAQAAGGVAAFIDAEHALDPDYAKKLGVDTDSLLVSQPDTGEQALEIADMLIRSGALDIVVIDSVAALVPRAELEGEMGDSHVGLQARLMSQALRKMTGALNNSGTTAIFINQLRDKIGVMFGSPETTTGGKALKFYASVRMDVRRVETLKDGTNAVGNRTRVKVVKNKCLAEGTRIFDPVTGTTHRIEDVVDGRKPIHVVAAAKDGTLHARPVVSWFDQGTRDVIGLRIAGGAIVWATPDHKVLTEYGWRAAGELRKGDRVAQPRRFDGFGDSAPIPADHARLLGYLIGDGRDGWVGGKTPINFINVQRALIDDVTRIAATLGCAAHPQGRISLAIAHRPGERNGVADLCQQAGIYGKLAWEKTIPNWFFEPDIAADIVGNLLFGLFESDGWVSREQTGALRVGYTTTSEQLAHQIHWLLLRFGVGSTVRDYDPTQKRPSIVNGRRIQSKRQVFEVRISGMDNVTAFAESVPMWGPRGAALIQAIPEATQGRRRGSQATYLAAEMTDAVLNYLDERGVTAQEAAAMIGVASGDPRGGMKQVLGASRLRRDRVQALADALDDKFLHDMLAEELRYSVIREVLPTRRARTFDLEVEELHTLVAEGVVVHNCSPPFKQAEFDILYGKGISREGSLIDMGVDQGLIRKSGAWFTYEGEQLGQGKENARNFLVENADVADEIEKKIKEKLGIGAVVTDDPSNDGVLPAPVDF

[3] = target: T3, Rac GTPase-activating protein 1 (Homo sapiens, UniProt Q9H0H5); test: MgcRacGAP GTPase-activating activity inhibitors, confirmation, biochemical, ADP Hunter fluorescence, primary and confirmatory (AID 624330); type: functional
T3 sequence (Q9H0H5 whole entry): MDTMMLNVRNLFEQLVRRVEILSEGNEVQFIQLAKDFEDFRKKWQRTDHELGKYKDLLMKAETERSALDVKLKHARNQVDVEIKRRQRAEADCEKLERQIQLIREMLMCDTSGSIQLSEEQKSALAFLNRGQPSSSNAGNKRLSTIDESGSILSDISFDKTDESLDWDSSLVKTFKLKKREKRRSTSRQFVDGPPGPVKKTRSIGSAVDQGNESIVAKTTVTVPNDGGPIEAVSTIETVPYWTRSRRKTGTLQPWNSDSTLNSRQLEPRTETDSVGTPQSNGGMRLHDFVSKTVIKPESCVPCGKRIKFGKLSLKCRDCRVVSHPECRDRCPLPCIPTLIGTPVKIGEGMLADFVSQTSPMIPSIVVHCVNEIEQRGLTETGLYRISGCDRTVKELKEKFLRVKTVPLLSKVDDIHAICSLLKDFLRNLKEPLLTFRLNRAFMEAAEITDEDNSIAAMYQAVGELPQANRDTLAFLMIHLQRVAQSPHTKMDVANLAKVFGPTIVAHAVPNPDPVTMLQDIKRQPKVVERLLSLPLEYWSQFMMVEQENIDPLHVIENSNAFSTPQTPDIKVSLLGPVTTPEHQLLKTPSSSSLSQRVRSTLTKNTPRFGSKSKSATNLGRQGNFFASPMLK

[4] = target: FAD-linked sulfhydryl oxidase ALR (Homo sapiens, UniProt P55789); test: inhibitors of human ALR sulfhydryl oxidase, dose response, biochemical, H2O2 detection, luminescence, cherry-pick (AID 493248)
Chain of FAD-linked sulfhydryl oxidase ALR (P55789 whole entry): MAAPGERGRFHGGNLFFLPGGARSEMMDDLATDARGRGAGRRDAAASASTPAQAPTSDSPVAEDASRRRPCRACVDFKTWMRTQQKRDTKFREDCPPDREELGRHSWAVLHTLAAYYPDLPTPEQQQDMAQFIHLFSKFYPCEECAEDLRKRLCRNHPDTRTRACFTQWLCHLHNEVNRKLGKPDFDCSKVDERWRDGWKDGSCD

[5] = Luminescence Cell-Based Dose Confirmation HTS to Identify Inhibitors of Platelet Dense Granule Release. [Related pubchem assays: 1663 (Primary HTS), 1678 (Summary of Project)]; type: functional
[6] = target: Luciferin 4-monooxygenase (Photinus pyralis, UniProt P08659); test: firefly luciferase enzyme inhibitors, dose response, biochemical, luminescence (AID 1891)
Chain of Luciferin 4-monooxygenase (P08659 whole entry): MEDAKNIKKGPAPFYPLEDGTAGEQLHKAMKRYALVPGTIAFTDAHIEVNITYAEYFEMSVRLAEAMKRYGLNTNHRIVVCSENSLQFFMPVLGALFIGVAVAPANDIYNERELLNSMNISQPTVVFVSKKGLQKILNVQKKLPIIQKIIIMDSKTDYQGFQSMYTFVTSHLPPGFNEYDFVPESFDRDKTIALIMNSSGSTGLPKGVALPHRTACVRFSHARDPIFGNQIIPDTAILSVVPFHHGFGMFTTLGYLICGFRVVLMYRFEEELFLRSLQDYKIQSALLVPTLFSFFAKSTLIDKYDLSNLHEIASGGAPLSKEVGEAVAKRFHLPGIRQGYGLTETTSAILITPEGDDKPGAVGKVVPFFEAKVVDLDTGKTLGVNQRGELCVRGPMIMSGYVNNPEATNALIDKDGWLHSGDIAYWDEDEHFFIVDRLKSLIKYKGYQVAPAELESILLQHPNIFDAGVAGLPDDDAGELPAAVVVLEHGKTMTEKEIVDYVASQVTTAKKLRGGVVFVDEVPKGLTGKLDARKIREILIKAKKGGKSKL

[7] = inhibitors of intracellular T. cruzi replication, confirmation, NIH3T3 host cells, beta-gal luminescence (AID 2044); type: functional, cell-based;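 note: intracellular parasites grown in NIH/3T3 mouse fibroblasts as host cells; luminescent beta-galactosidase reporter signal from transgenic T. cruzi replicating inside host cells; inhibitors lower the luminescence signal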
[8] = cytotoxicity toward NIH3T3 fibroblasts, dose response, counter-screen, cell-based, ATP luminescence, mouse fibroblasts (AID 2010); type: functional;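 note: cells exposed to compound for about 90 hours before reading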
[9] = target: T4, Streptokinase A (Streptococcus pyogenes serotype M1, UniProt P10520); test: S. pyogenes streptokinase expression inhibitors, potency, dose response, plasminogen activation absorbance, OD405 (AID 1914); type: functional, Streptococcus pyogenes M1 GAS;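 note: secreted streptokinase activity via plasminogen activation per viability signal from cell pellet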
T4 sequence (P10520 whole entry): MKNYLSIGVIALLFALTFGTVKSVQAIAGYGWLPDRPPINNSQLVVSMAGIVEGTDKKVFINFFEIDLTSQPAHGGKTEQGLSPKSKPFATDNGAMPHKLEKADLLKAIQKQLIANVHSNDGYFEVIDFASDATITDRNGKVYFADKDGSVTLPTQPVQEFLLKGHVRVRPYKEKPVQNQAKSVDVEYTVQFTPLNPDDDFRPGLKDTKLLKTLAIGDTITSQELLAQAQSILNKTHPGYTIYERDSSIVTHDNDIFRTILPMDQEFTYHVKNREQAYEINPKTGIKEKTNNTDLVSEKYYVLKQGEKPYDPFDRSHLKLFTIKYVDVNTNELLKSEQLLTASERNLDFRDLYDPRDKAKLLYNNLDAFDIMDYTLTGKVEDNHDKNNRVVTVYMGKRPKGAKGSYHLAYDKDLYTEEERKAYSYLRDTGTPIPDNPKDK

[10] = C. albicans growth with fluconazole, confirmation, fluorescence, retest (AID 2467); type: functional, cell-based
[11] = NIH-3T3 fibroblast cytotoxicity, dose response, cytotoxicity control, cell-based, fluorescence, Alamar Blue, secondary assay (AID 2327); type: functional;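 note: NIH-3T3 mouse fibroblasts cultured with fluconazole at 8 µg/mL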

For `CC1CCCN(C(=O)COc2ccc(NC(=O)c3cccs3)cc2)C1` (stereo not given), the AC50 [1] was > 380 µM (inactive) and the EC50 [2] was > 380 µM (inactive).

For `COc1ccc(N2CCN(C(=O)CCCn3nnnc3CN3CCOCC3)C(C)C2)cc1` (stereo not given), the IC50 [3] was 150 µM (active).

For `C=CCn1c(SCc2cccc(F)c2)nc2cc(C(=O)N3CCC(C(N)=O)CC3)ccc2c1=O`, the AC50 [4] was 2.27 µM (active).

With `CCN(CC(=O)Nc1ccc(S(=O)(=O)N2CCCC2)cc1)CC(=O)Nc1cccc(OC)c1` the IC50 [3] was 35.5 µM (active).

With `CCOc1c(OC(C)=O)ccc(/C=C/c2ccc3cccc(OC)c3n2)c1[N+](=O)[O-]` the EC50 [5] was 17.6 µM (active) and the EC50 [6] was > 112 µM (not active).

For `O=[N+]([O-])c1c(O)nc(/C=C\c2cccc(F)c2)nc1O`, the AC50 [4] was 1.76 µM (active).

With `Cc1csc(SCC(=O)Nc2nc(-c3ccccc3)cs2)n1` the EC50 [5] was > 112 µM (not active) and the EC50 [6] was > 112 µM (not active).

For `O=C1CSC(c2ccccn2)N1c1cccc(Cl)c1` (stereo not given), the AC50 [4] was 0.394 µM (active).

In the case of `COc1ccccc1CN1CCN(Cc2cc(OC)c(OC)cc2OC)CC1`, the IC50 [3] is reported as 73.5 µM (active).

In the case of `CCOC(=O)C1CCCN(C(S)=Nc2ccc(Nc3ccccc3)cc2)C1` (stereo not given), the IC50 [3] is reported as 51 µM (active).

For `CCOC(=O)c1sc(=S)n(CC)c1NC(=O)C1CC1`, the EC50 [5] was > 112 µM (not active) and the EC50 [6] was > 112 µM (not active).

For `CCn1c(SCc2cccc(C(=O)O)c2)nnc1-c1ccccc1`, the EC50 [5] was > 112 µM (not active) and the EC50 [6] was > 112 µM (not active).

For `CCOc1cc(NC(=O)c2ccccc2C(=O)O)c(OCC)cc1NC(=O)c1ccccc1F`, the EC50 [7] was 5.83 µM (active), the IC50 [3] was 54.8 µM (active) and the EC50 [8] was > 60 µM (not active).

With `Clc1ccc(/C=C/c2ncc3ccccn23)cc1` the AC50 [4] was 8.17 µM (active).

For `CCN1CCCC1CNC(=O)CS(=O)(=O)Cc1nc(-c2ccccc2C)oc1C` (stereo not given), the EC50 [5] was 64.8 µM (active) and the EC50 [6] was > 112 µM (not active).

For `CC(C)NC(=S)NC(c1ccccc1)(c1ccccc1)c1ccccc1`, the AC50 [1] was 3.07 µM (active), the EC50 [2] was 136 µM (inconclusive) and the EC50 [9] was 11.7 µM (active).

For `COc1cc(-n2c(S)nnc2-c2ccccc2)c(OC)cc1Cl`, the AC50 [4] was 12.3 µM (active).

For `c1ccc2nc(N3CCCC3)c(N3CCCC3)nc2c1`, the AC50 [4] was 0.034 µM (active).

For `COc1ccccc1-n1c(=O)c2c3c(sc2n2c(S)nnc12)CCC3`, the IC50 [3] was 50.3 µM (active).

For `Oc1c(C(c2cccs2)N2CCOCC2)sc2ncnn12` (stereo not given), the EC50 [5] was > 112 µM (not active) and the EC50 [6] was > 112 µM (not active).

In the case of `COc1ccc(C(=O)Nc2ccc3[nH]ccc3c2)cc1OC`, the EC50 [5] is reported as > 112 µM (not active) and the EC50 [6] is reported as > 112 µM (not active).

With `CCOc1cc(/C=C/c2cccc[n+]2C)ccc1O` the IC50 [3] was 22.9 µM (active).

With `CC(=O)N1N=C(c2ccncc2)OC12CCCC2` the EC50 [5] was > 112 µM (not active) and the EC50 [6] was > 112 µM (not active).

With `Oc1ccc(O)c2c1C1c3ccccc3C2c2ccccc21` the EC50 [10] was 2.94 µM (active), the EC50 [11] was 25 µM (active) and the AC50 [1] was 34.5 µM (active). For the same molecule, the EC50 [2] was 2.08 µM (active).

In the case of `Cc1nc(SCc2ccc(Cl)c(Cl)c2)ncc1C(=O)O`, the EC50 [10] is reported as 0.78 µM (active), the EC50 [11] is reported as > 150 µM (inactive) and the AC50 [4] is reported as 0.027 µM (active).

In the case of `O=C(O)c1cccc(S(=O)(=O)Nc2ccc(O)c(Sc3nc4ccccc4s3)c2)c1`, the AC50 [4] is reported as 0.176 µM (active).

For `O=C(NCc1ccccc1)C(c1cccnc1)N(C(=O)c1ccccn1)c1ccc(F)cc1` (stereo not given), the EC50 [5] was > 112 µM (not active) and the EC50 [6] was > 112 µM (not active).

In the case of `COC(CN(C(=O)CCl)C(C(=O)NC1CCCC(C)C1C)c1ccc(C)cc1)OC` (stereo not given), the AC50 [1] is reported as 24.6 µM (active) and the EC50 [2] is reported as 2.11 µM (active).

In the case of `Nc1cccc(-c2cn3cccnc3n2)c1`, the AC50 [4] is reported as 0.232 µM (active).

With `O=C(O)/C=C/C(=O)Nc1ccc(SC(F)(F)C(F)(F)C(F)(F)F)cc1` the AC50 [1] was 11.7 µM (active) and the EC50 [2] was 2.59 µM (active).

In the case of `CCc1ccc(-c2cc(C)no2)cc1S(=O)(=O)NCCN1CCC(C)CC1`, the EC50 [5] is reported as > 112 µM (not active) and the EC50 [6] is reported as > 112 µM (not active).

With `Cc1onc(-c2ccccc2Cl)c1C(=O)N1CCc2ccccc2C1` the EC50 [5] was > 112 µM (not active) and the EC50 [6] was > 112 µM (not active).

With `Cc1c(Cl)cccc1Nc1nnc(S)s1` the IC50 [3] was 108 µM (active).

In the case of `COc1cc(/C=C/C(=O)OCC(=O)Nc2cccc(F)c2)ccc1O`, the IC50 [3] is reported as 41.6 µM (active).

For `CCc1n[nH]c2c1C(c1ccc(C)o1)C(C#N)=C(N)O2` (stereo not given), the AC50 [1] was 37.3 µM (active) and the EC50 [2] was 4.31 µM (active).

With `O=C(N/N=C/c1ccc(O)c(O)c1)c1ccc(-n2cnnn2)cc1` the IC50 [3] was 18.6 µM (active).

In the case of `C/C(=N\Nc1nc2ccccc2[nH]1)c1ccc(C)o1`, the IC50 [3] is reported as 69 µM (active) and the AC50 [4] is reported as 0.299 µM (active).

For `COc1ccc(COC(=O)N/N=C(\C)CC(=O)Nc2ccc(Cl)cn2)cc1`, the AC50 [1] was 5.46 µM (active) and the EC50 [2] was 4.27 µM (active).

In the case of `Sc1nncn1/N=C/c1ccccn1`, the AC50 [4] is reported as 3.06 µM (active).

Reference: ChEMBL document CHEMBL1201862, “PubChem BioAssay data set” (2004)
